Numbers after ± are expanded uncertainties.
Legend:
[1] = Molar enthalpy of transition or fusion; details: Crystal; DSC
[2] = Crystal; visual observation

| SMILES | Molar enthalpy of transition or fusion [1] [kcal/mol] | Normal melting temperature [2] [°C] |
| --- | --- | --- |
| Nc1cccc(O)c1 [3-hydroxybenzenamine] | 6.6 ± 0.191 | 123.00 ± 1 |
| O=Cc1cccc(O)c1 [3-hydroxybenzaldehyde] | 5.76 ± 0.167 | 103.00 ± 1 |
| Clc1ccc(Br)cc1 [1-bromo-4-chlorobenzene] | 4.76 ± 0.143 | 65.00 ± 1 |
| c1ccc(-c2ccccc2)cc1 [biphenyl] | 4.61 ± 0.143 | 70.50 ± 1 |

Reference: the NIST ThermoML archive (doi:10.1016/j.tca.2012.02.020)
